Reference: a melting point compilation (Tetko et al.; mined from patent text by program, amines drawn as free bases though some values may be those of a salt)

SMILES	melting point
CC1(C)CC(C(O)CNc2nc(NCc3ccccc3)nc(NCC(O)C3CC(C)(C)NC(C)(C)C3)n2)CC(C)(C)N1 (configuration not stated)	88 °C
CC(=O)N(CC(=O)O)c1ccc(C)cc1C	165 to 172 °C
CCCCCCOc1cccc2ncccc12	46 to 49 °C
COc1cc(OC)cc(-c2nc(C)nn2-c2ccc(S(N)(=O)=O)cc2)c1	207 to 208 °C
CCCCc1nn(CC(F)(F)F)c(C(=O)O)c1Cc1ccc2oc(-c3ccccc3-c3nnn[nH]3)c(Br)c2c1	216 to 220 °C
COc1ncc(Cl)c(C)c1C(=O)O	127 to 129 °C
COC(=O)c1ccc(C(CCN(C)C)c2ncc[nH]2)cc1 (configuration not stated)	102 to 104 °C
CC(=S)Nc1ccc(C(=O)O)cc1	220 °C
O=C(Nc1ccc(Cl)cc1)n1cc(F)c(=O)[nH]c1=O	> 260 °C
CCCCNC(=O)OCC(=NNC(N)=S)c1ccccc1	103 to 116 °C
CCOc1ccnc2[nH]cc(C(C)=O)c12	> 210 °C
CN(C)C(=O)Cc1ccccc1Nc1c(F)c(F)cc(F)c1F	109 to 110 °C
CCOC(=O)C(=NO)c1ccc(F)cc1	117 to 118 °C
NC(=O)c1ccc(F)c2c1OCC(N(CCCCc1c[nH]c3ccc(F)cc13)CC1CC1)C2 (configuration not stated)	116 °C
CC1(C)CCc2c(N3CCOCC3)nc3sc4c(NCCc5c[nH]cn5)ncnc4c3c2C1	223 to 224 °C
Cc1cccc(C(=O)NO)c1N(C)S(=O)(=O)c1ccc(OCCCNC(=O)c2ccc3c(c2)OCO3)cc1	102 to 112 °C
CNC(=O)c1cccc(NC(=O)Cc2ccc3c(c2)CC(C)(C)O3)c1	92 to 93 °C
O=S1CCn2c1nc(-c1ccc(F)cc1)c2-c1ccncc1 (configuration not stated)	229 to 231 °C
Cn1cnc2cc(C(=O)NC3CC3)c(NC(=O)c3cc(C(F)(F)F)nn3-c3ncccc3Cl)c(Cl)c21	148 to 151 °C
CCOC(=O)C(=CNc1ccc(CC)nc1)C(=O)OCC	55 to 57 °C
CCOC(=O)CCCNC(=O)c1n[nH]cc1NC(=O)c1ccccn1	179 to 180 °C
N#Cc1oc(-c2ccc(Cl)cc2)c2ccccc12	128 to 130 °C

SMILES	melting point
CCCCCCC(C)(C)c1ccc(C2=CCCN(C)C2)c(O)c1	126 to 127 °C
CC(C)[C@H](C[C@H](O)[C@H](C)NC(=O)OC(C)(C)C)C(=O)NCCCn1ccnc1	148 to 150 °C
NC(=O)c1cccc2c1OC(CN1CC=C(c3c[nH]c4ccc(F)cc34)CC1)CO2 (configuration not stated)	195 to 197 °C
COc1cc2ncnc(N3CCC(=O)CC3)c2cc1OC	176 to 178 °C
CC(=O)Oc1ccc2c(c1)CCC1C2CCC2(C)C1CC(O)C2N(C)C (configuration not stated)	173 to 175 °C
Cc1ccc(Nc2ncccc2O)cc1	134 to 135 °C
CC(O)CSC(=S)Nc1ccccn1 (configuration not stated)	78 °C
CCCCCCC1CCC(O)C(=O)O1 (configuration not stated)	75.5 to 77 °C
Cc1ccc(Nc2ccc(Nc3ncnc4cc(-c5ccccc5)sc34)cc2)cc1	221 to 222 °C
NC(=O)NCCNc1ccc([N+](=O)[O-])cc1	187 °C
COc1ccnc(C(=O)c2[nH]c3cc(Cl)ccc3c2NC(=O)N(C)OC)c1	184 to 185 °C
COCC1=NC(NC(=O)Nc2cccc(C)c2)C(=O)N(CC(=O)N2CC3CCC(CC3)C2)c2c(C)cccc21 (configuration not stated)	178 to 182 °C
COc1ccc2c(=O)c(CO)cn(C)c2c1	164 to 166 °C
CC(=O)/C=C/c1cc(F)c2ncc(C(=O)NCc3ccc(Cl)cc3)c(O)c2c1	286 to 289 °C
COC(=O)c1cn(-c2cc(C(=O)Nc3cc(C(C)(C)C)cc(NS(C)(=O)=O)c3OC)cc(C)c2C)nn1	199 °C
CN(C(=O)Cc1cccc2ccccc12)C1c2ccccc2CC1N1CCCC1 (configuration not stated)	127 °C
CN(c1ncnc2c1ncn2Cc1ccccc1F)n1cccc1	147 to 149 °C
N#CCOc1ccc2occ(CC#N)c2c1	86 to 87 °C
COCC#Cc1cc(OC)c2ncc(C(=O)NCc3ccc(Cl)cc3)c(O)c2c1	211 to 213 °C
CC1=C(C#N)S(=O)(=O)c2cc(Cl)ccc2N1	297 to 299 °C
COc1ccc(N2CCN(c3c(C)c(C)c4c(c3C)C(O)(c3ccc(C(F)(F)F)cc3)C(C)(C)O4)CC2)cc1 (configuration not stated)	181 to 183 °C
CSC1=NC(=O)C(=Cc2cccc(-c3cc(F)c(O)c(C45CC6CC(CC(C6)C4)C5)c3)c2)S1	270 to 271 °C

SMILES	melting point
CN1C(=O)C2(COc3cc4c(cc32)OCCO4)c2c(-c3cc[nH]n3)cccc21 (configuration not stated)	201 to 202 °C
NS(=O)(=O)c1ccccc1C=CC(F)(F)F	153 to 154 °C
CNC(=O)Oc1cc(C)c(NC(=O)C(F)(F)Cl)cc1C	187 to 188 °C
Nc1nc2c(ncn2C(c2ccccc2)(c2ccccc2)c2ccccc2)c(=O)[nH]1	268 to 270 °C
CNS(=O)(=O)Cc1ccc(Nc2nc(Nc3ccccc3)c3cc(OC)ccc3n2)cc1	212 to 215 °C
Cc1ccc(NC(=O)c2cccc(C(F)(F)F)c2)cc1/C=C/n1cnc2c(Nc3ccc(P(C)(C)=O)cc3)ncnc21	230 to 234 °C
COc1nc2cc(C)c(Cl)c(NS(C)(=O)=O)c2nc1OC	198 °C
COc1cc2ncnc(N3CCc4ccc(N)cc43)c2cc1OC	215 to 218 °C
CCCc1nc2c(N)nc3cc(OCc4ccc(C(C)(C)C)cc4)ccc3c2n1CC(C)C	204 to 205 °C
C=C1CC(C)(O)CCC2=C(C)CCC12 (configuration not stated)	54 °C
CCOC(=O)c1c(N)sc(N=Cc2cccs2)c1C(=O)OCC	114 to 116 °C
C=CCN(c1ncnc2c1ncn2CC(C)O)C1CCCCC1 (configuration not stated)	108 to 110 °C
CCCCCc1c(C(C)C)nc(C(C)C)c(CO)c1-c1ccoc1	98 to 100 °C
Fc1ccc(-n2nccc2NC2=NCCN2)cc1	195 to 197 °C
Nc1ccc2ncnc(Nc3cc(Cl)c(Cl)cc3F)c2c1	265 °C
Cc1ccc(C2CC(n3cncn3)c3ccccc3N2)cc1 (configuration not stated)	146 to 148 °C
C=C(C)C(=O)c1nc(S(=O)C(C)C)n(-c2ccc(CC)cc2)c1Cl (configuration not stated)	83 to 84 °C
CC(C)c1ccc(C(=O)C2=C(O)C(=O)N(c3cccn(C)c3=O)C2c2ccc(OC(F)(F)F)cc2)cc1 (configuration not stated)	207 °C
CCOc1ccn([C@H]2CS[C@@H](CO)O2)c(=O)n1 (relative stereo)	117 to 118 °C
CCN1CCC(O)(c2cccc(F)c2F)C1 (configuration not stated)	119 to 120 °C
O=C1NC(=O)C(Cc2ccc(OCc3nc4cccnc4n3Cc3ccc(-c4ccccc4)cc3)cc2)S1 (configuration not stated)	189 to 191 °C

Results, then the molecule that gave them:

melting point	SMILES
96 to 98 °C	COc1ccc(C2=CS(=O)CCC2)cc1OC1CCCC1 (configuration not stated)
299 to 302 °C	O=c1oc2cc(O)c(O)cc2c2c1CN(CCN1CCOCC1)CC2
59 °C	Cc1cc(C=O)c(OCCCCCCCCc2ccccc2)c(C=O)c1
159 to 160 °C	CCCCN(C1c2cc(OCc3ccccc3)ccc2OC(C)(C)C1O)S(C)(=O)=O (configuration not stated)
60 to 62 °C	Fc1ccc(Cn2cnc3ccccc32)cc1
138 to 140 °C	CCOC(=O)NC(Cc1ccccc1)C(O)C(=O)O (configuration not stated)
164 to 165 °C	CS(=O)(=O)c1cccc(C2=C(C3CCCC3)CCC2=NO)c1
123 to 124 °C	Cc1cc(OC2CCN(CCNC(=O)c3ccc(S(C)(=O)=O)cc3)CC2)ccc1Cl
117 °C	Cc1cccc(-c2nc3ccccc3n2Cc2ccccc2Cl)c1
81 °C	COc1ccc(CN2C(=O)C(C)(c3cc(COCCN4CCOCC4)ccc3Cl)c3cc(Cl)ccc32)c(OC)c1 (configuration not stated)
110 to 112 °C	ClCCCOc1ccccc1Nc1nc(Cl)nc2c1ncn2C1CCCC1
69 to 71 °C	CN1C(=O)[C@@H](CN2CCCCC2)C[C@H]1c1ccc(Br)s1
95 to 97 °C	CN1C(=O)CSC=C1c1ccccc1
162 to 164 °C	CC(C)(C)NCC(O)COc1ccccc1-c1ccc(=O)[nH]n1 (configuration not stated)
199 to 202 °C	C=C1c2ccn3c(C)c(C)nc3c2N[C@H](c2ccccc2)[C@H]1O
252 to 254 °C	O=C1Cc2c(cc3ccccc3c2Cl)C(c2ccccc2Cl)N1 (configuration not stated)
106 to 108 °C	O=c1cc(N2CCCCC2)sn1CCc1ccccc1
240 to 243 °C	COc1ccc(-n2c(-c3cc(-c4ccc(S(C)(=O)=O)cc4)c(N4CCOCC4)s3)nc3ccccc3c2=O)cc1
106 to 116 °C	COc1cc2c(cc1F)C1(CO2)C(=O)N(CC2CCCO2)c2ccccc21 (configuration not stated)

melting point	SMILES
133 °C	Cc1ccccc1[C@H]1CC[C@@H](c2ccccc2)N1C(=O)CNC(=O)Nc1cccc(CC(=O)O)c1 (racemic)
103 to 106 °C	COc1ccc2c(c1)CC(NC(=S)NCCOC(=O)c1ccccc1)CC2 (configuration not stated)
143 to 144 °C	Cc1oc(-c2ccccc2)nc1CCOc1ccc(CCc2nnn[nH]2)cc1
86 to 89 °C	CC(CO)c1ccc2c(c1)Cc1ccccc1O2 (configuration not stated)
138 to 143 °C	O=CNNc1ccccc1
186 to 187 °C	O=C1Cc2cc(Cl)cc(C(=O)c3ccccc3)c2N1
141 to 143 °C	O=c1oc(-c2ccccc2)cc(O)c1SCC1CCCCC1
222 to 224 °C	N#Cc1ccc(CN2C(=O)C3CCCC3N(C(=O)CN3C(=O)c4ccccc4C3=O)c3ccccc32)cc1 (configuration not stated)
149 to 150 °C	Cc1cccc(C(=O)NNC(=O)c2ccccc2Cc2ccccc2)c1
134 to 136 °C	CCc1ccc(C2=NC(C)(C(C)C)C(=O)N2CC(=O)O)nc1 (configuration not stated)
214 to 217 °C	CON1C=C2N=NC3=C(N2C1)N(c1ccccc1)CC(C)=C3
> 250 °C	CN1C(=O)COc2cc3c(cc21)OCC31C(=O)Nc2ccccc21 (configuration not stated)
96 to 97 °C	C=C1N(C)C(=O)OC12CCN(Cc1ccccc1)CC2
211 to 212 °C	O=c1[nH]c(N2CCN(CCCCN3CCCCC3)CC2)cc2ccc(Br)cc12
67 to 69 °C	O=C1CC(c2c(-c3ccc[nH]3)[nH]c3ccccc23)C(=O)N1 (configuration not stated)
198 to 200 °C	CCOCCOc1ccccc1-c1cc(=O)c2cc(C(=O)O)ccc2o1
210 to 213 °C	Cc1cn(Nc2ccncc2F)c2ccc(OCc3ccccc3)cc12
213 to 215 °C	O=S1(=O)c2ccccc2Oc2cc(O)ccc21
